Experimental findings from patent US5693812A, “Polymorphic forms of an angiotensin II antagonist” (priority 1996, dated 1997) are described below.

Entries after “also recorded” stand apart in the source; their conditions may differ. Counter-ions that a name gives are not always drawn.

Format in all cases: physicochemical
Series [1] can be described thus: Thermogravimetric analysis (TGA) weight loss / water content. Particulars: potassium salt; for hydration state: TGA. The method, then:
(§1) The crystal forms were characterized and evaluated by measuring the heats of solution or solution calorimetry, solubility data, x-ray powder diffraction patterns (XRPD), differential scanning calorimetry (DSC) and thermogravimetric analysis (TGA). Heats of solution at 30° C. were obtained in the Setaram C-80 calvet calorimeter with sample size of 7-13 mg dissolved into 5 ml of 88% DMSO 12% water for a final concentration of 1.4-2.6 mg/ml. XRPD patterns were recorded using an automated Siemens X-ray diffractometer with copper tube K alpha radiation. DSC and TGA were conducted using a Perkin Elmer series 7 instrument with a scan rate of 10° C./min over the temperature range of 30°-300° C. Utilizing these techniques the thermodynamic stability of the polymorphs of 3-[2'-(N-benzoyl)sulfonamidobiphenyl-4-yl]methyl-5,7-dimethyl-2-ethyl-3H-imidazo[4,5-b]pyridine potassium salt was determined.
Step K: Preparation of 3-[2'-(N-Benzyl)sulfonamidobiphenyl-4-yl]methyl-5,7-dimethyl-2-ethyl-3H-imidazo[4,5-b]pyridine potassium salt--(Forms I, Id and W) [drawing 13] In a 72-L four-necked flask fitted with an overhead stirrer and a reflux condenser, 3-[2'-(N-benzyl)sulfonamidobiphenyl-4-yl]methyl-5,7-dimethyl-2-ethyl-3H-imidazo[4,5-b]pyridine 1 (5.04 kg, 9.6 mol), methanol (14.5 L) and water (2.5 L) are mixed. The slurry is warmed to 62° C. under a nitrogen atmosphere and 1.94M potassium hydroxide (4.96 L, 9.61 mol) is added to the slurry at 62° C. over 1.5 hours to provide a homogeneous solution. Isopropyl acetate (13.83 L) is then added at 65° C. and the mixture is warmed to 70° C. The homogeneous solution is filtered at 70° C. to remove any particulates that are present. The filtrate is diluted with isopropyl acetate (1.3 L), methanol (0.6 L) and water (0.1 L). […] The homogeneous mixture is cooled to 52° C. over 2 hours, whereupon potassium salt seed of form "I" (140 g) is added. This mixture becomes cloudy after 30 min. The mixture is aged for 10 hours at 52° C. The white slurry is cooled to 48° C. over 1 hour and stirred for 3 hours. Finally, the crystallization mixture is cooled to 0° C. at a rate of 1° C./12.5 min. and aged for 2 hours at 0° C. […] The solid is centrifuged at 0° C. and displacement-washed with a mixture of 2:2:1 cold (0° C.) isopropyl acetate/methanol/water (5.65 L) followed by isopropyl acetate (2.3 L). The solid is semi-dried to a TG of 10-15% by spin drying. The mother liquors contain 21 wt % of 3-[2'-(N-benzyl)sulfonamidobiphenyl-4-yl]methyl-5,7-dimethyl-2-ethyl-3H-imidazo[4,5-b]pyridine potassium salt. At this stage, the crystal form of the product is form "W". The product is powdered by passing through a screen (size=12). The solid is dried by passing dry nitrogen over the solid under vacuum at 22° C. for 5 hours to yield 4.55 kg of 3-[2'-(N-benzyl)sulfonamidobiphenyl-4-yl]methyl-5,7-dimethyl-2-ethyl-3H-imidazo[4,5-b]pyridine potassium salt as the form "I" with a purity of 99.7% (assay-HClO4 titration) and TG of 7-10%. Generally, the wet cake consists of residual water, methanol and isopropyl acetate. The K-salt is considered dry when <0.05% methanol and isopropyl acetate are detected by ^1 H NMR. The product is further powdered by passing the solid through a Quadro Comil (model 197s, screen size=1143 mm round impeller) to yield 4.5 kg. The product is dried to a TG of 4.6-5.5% by the passage of dry nitrogen over the solid under vacuum at 22° C. After 10 hours, 4.24 kg (78%) of the potassium salt as the form "I" is obtained with a TG of […] (99.7 wt % by titration). The water content can be monitored by TG analysis. The TG of the potassium salt of form "I" is 4.6-5.5%. The crystal form is monitored by X-ray analysis. When the potassium salt is over dried, the crystal form converts to form "Id" (TG<4.6%). […]

Series [2] can be described thus: Heat of solution by solution calorimetry (Setaram C-80). Particulars: DMSO, 30° C., potassium salt. The protocol:
The heat of solution of different crystal forms of 3-[2'-(N-benzoyl)sulfonamidobiphenyl-4-yl]methyl-5,7-dimethyl-2-ethyl-3H-imidazo[4,5-b]pyridine potassium salt were studied at 30° C. The heat of solution is a measure of the crystal lattice energy. […] Heats of solution had to be conducted in a solvent which dissolved the samples quickly without conversion to another polymorph. This really limited solvents which could be used. Dimethylsulfoxide was chosen for this reason. The heats of solution therefore have contributions from the lattice energy of the solid as well as heat of dilution of lattice water in dimethylsulfoxide. The calorimeter therefore produces a complex signal that has an exothermic contribution from the water and an additional contribution from the energy required to dissolve the crystal. […] Additional heats of solution were determined in a mixed solvent system of 88% dimethylsulfoxide and 12% water. This system was used to minimize the contribution of moisture to the heat of solution.
as §1, with “C.” for “C. Utilizing these techniques the thermodynamic stability of the polymorphs of 3-[2'-(N-benzoyl)sulfonamidobiphenyl-4-yl]methyl-5,7-dimethyl-2-ethyl-3H-imidazo[4,5-b]pyridine potassium salt was determined.”

Series [3] can be described thus: Crystal form conversion in acetonitrile, with or without water (XRPD). Particulars: overnight, room temperature, potassium salt; for crystal form after stirring/shaking in acetonitrile: no added water. From the text:
Since all of the crystal forms of 3-[2'-(N-benzoyl)sulfonamidobiphenyl-4-yl]methyl-5,7-dimethyl-2-ethyl-3H-imidazo[4,5-b]pyridine potassium salt were changed to a single crystal form "D", in water, the effect of a non-aqueous solvent was studied. 3-[2'-(N-benzoyl)sulfonamidobiphenyl-4-yl]methyl-5,7-dimethyl-2-ethyl-3H-imidazo[4,5-b]pyridine potassium salt, Forms "A", "B", "C", and "D" were stirred overnight at room temperature in acetonitrile. The remaining solids were filtered and then vacuum dried overnight at room temperature. The crystallinity of the solids was examined by XRPD spectroscopy.
All of the crystal forms were converted to a single crystal form ("D") in water, but in acetonitrile to two different crystal forms. […] To explore the role of water in the above experiments, 3-[2'-(N-benzoyl)sulfonamidobiphenyl-4-yl]methyl-5,7-dimethyl-2-ethyl-3H-imidazo[4,5-b]pyridine potassium salt, form "C" (an anhydrous crystal form) was this time suspended in acetonitrile with added water (water was 10% of the solid weight). As a control experiment Form "C" was also suspended in acetonitrile with no added water. The samples were shaken overnight at room temperature. The remaining solids were filtered and vacuum dried overnight at room temperature.

The nature of series [4]: Crystal form stability in water (XRPD of remaining solid). The following applies: room temperature, potassium salt. The text has this:
[13) S. R. Byre. "Solid State Chemistry of Drugs." Academic Press, New York, 1982.] […] Recrystallization of any of these lots from solvents like ethanol, methanol, isopropanol, acetone, etc. gave new crystal forms different from the original forms. […] Solubility in water at room temperature was one of these techniques. The equilibrium solubility in water, at room temperature for five polymorphs (Forms "B", "C", "D", "F", and "G") were the same (Table 1). When the remaining solids were filtered, air dried or vacuum dried overnight at room temperature the XRPD patterns had changed from the initial patterns and all were exactly the same. These experiments indicate that all of the crystal forms converted in water at room temperature to a new crystalline form designated […].
The remaining form "I" solid after equilibrium solubility studies in water was removed by filtration and vacuum dried overnight at room temperature.
After the discovery of form "I", form "D" could no longer be isolated in our laboratory. TGA studies indicate that form "I" of 3-[2'-(N-benzoyl)sulfonamidobiphenyl-4-yl]methyl-5,7-dimethyl-2-ethyl-3H-imidazo[4,5-b]pyridine potassium salt is a dihydrate (FIG. 4).

Series [5] is described as follows: Equilibrium solubility in water at room temperature. Particulars: room temperature.

As for `CCc1nc2c(C)cc(C)nc2n1Cc1ccc(-c2ccccc2S(=O)(=O)NC(=O)c2ccccc2)cc1` [Form C, 3-[2'-(N-benzoyl)sulfonamidobiphenyl-4-yl]methyl-5,7-dimethyl-2-ethyl-3H-imidazo[4,5-b]pyridine potassium salt], in series [1] (listed as C), the “% Weight Loss (Δ 30-150° C. by TGA)” value stood at 0.6% and the hydration state result is listed as “anhydrous”. Besides, the “ΔH solution DMSO at 30° C.” value in series [2] (listed as C) amounted to 29.75 ± 0.46 J/g. The “crystal form after shaking in acetonitrile-water” value in series [3] (acetonitrile with added water, listed as C) is recorded as “converted to form "I"”. For the same compound, the “crystal form after stirring/shaking in acetonitrile” value (shortened to “crystal form after stirring/shaking”) in series [3] (listed as C) is given as “changed to another new form ("J")”.
As for `CCc1nc2c(C)cc(C)nc2n1Cc1ccc(-c2ccccc2S(=O)(=O)NC(=O)c2ccccc2)cc1` [Form F, 3-[2'-(N-benzoyl)sulfonamidobiphenyl-4-yl]methyl-5,7-dimethyl-2-ethyl-3H-imidazo[4,5-b]pyridine potassium salt], in series [4] (listed as F), the “crystal form after suspension in water” value is “converted to form "D"”.
As for `CCc1nc2c(C)cc(C)nc2n1Cc1ccc(-c2ccccc2S(=O)(=O)NC(=O)c2ccccc2)cc1` [Form B, 3-[2'-(N-benzoyl)sulfonamidobiphenyl-4-yl]methyl-5,7-dimethyl-2-ethyl-3H-imidazo[4,5-b]pyridine potassium salt], in series [5], the “equilibrium solubility in water, comparison of five polymorphs” value is “the same”. Further, in series [1] (listed as B), the “% Weight Loss (Δ 30-150° C. by TGA)” value stood at 0.5% and the hydration state result is “anhydrous”. In addition, in series [2] (listed as B), the “ΔH solution DMSO at 30° C.” value is reported as 17.78 ± 0.52 J/g. Also, the “crystal form after stirring/shaking” value in series [3] (listed as B) was “changed to another new form ("J")”.
As to `CCc1nc2c(C)cc(C)nc2n1Cc1ccc(-c2ccccc2S(=O)(=O)NC(=O)c2ccccc2)cc1` [Form G, 3-[2'-(N-benzoyl)sulfonamidobiphenyl-4-yl]methyl-5,7-dimethyl-2-ethyl-3H-imidazo[4,5-b]pyridine potassium salt], in series [1] (listed as G), the “% Weight Loss (Δ 30-150° C. by TGA)” value was found to be 0% and the hydration state result is recorded as “anhydrous”. In series [2] (listed as G), the “ΔH solution DMSO at 30° C.” value is 8.51 ± 0.66 J/g. Also, in series [4] (listed as G), the “crystal form after suspension in water” value was “converted to form "D"”.
For `CCc1nc2c(C)cc(C)nc2n1Cc1ccc(-c2ccccc2S(=O)(=O)NC(=O)c2ccccc2)cc1` [Form J, 3-[2'-(N-benzoyl)sulfonamidobiphenyl-4-yl]methyl-5,7-dimethyl-2-ethyl-3H-imidazo[4,5-b]pyridine potassium salt], the “% Weight Loss (Δ 30-150° C. by TGA)” value in series [1] (listed as J) stood at 0.7%.
As for `CCc1nc2c(C)cc(C)nc2n1Cc1ccc(-c2ccccc2S(=O)(=O)NC(=O)c2ccccc2)cc1` [Form A, 3-[2'-(N-benzoyl)sulfonamidobiphenyl-4-yl]methyl-5,7-dimethyl-2-ethyl-3H-imidazo[4,5-b]pyridine potassium salt], in series [1] (listed as A), the “% Weight Loss (Δ 30-150° C. by TGA)” value was found to be 3.4% and the hydration state entry is “hydrated”. Also, the “ΔH solution DMSO at 30° C.” value in series [2] (listed as A) came out at 4.92 ± 0.47 J/g. In addition, the “crystal form after stirring/shaking” value in series [3] (listed as A) was “converted to a new crystal form ("I"); also recorded: changed to form "I"”.
